Measured values as given in PMC8155022 (Scientific Reports, 2021).
“Also recorded” adds a separate entry of the source.

Assays:
[1] = target: T1, IRAK4(h) (Homo sapiens, UniProt Q9NWZ3); test: Kinase panel; format: biochemical
T1 construct: purchased Cerep (receptors, ion channels, transporters); Eurofins Panlabs (kinases)
Experimental: (§1) Kinase selectivity was conducted by Eurofins Panlabs Inc (St Charles, MO).

[2] = target: T2, ERβ (Homo sapiens, UniProt Q92731); test: nuclear receptor cellular GAL4 reporter assay; format: cell-based; conditions: agonist and antagonist mode; read-out: potency in agonist and antagonist mode
T2 construct: expressed in transfected cells
T2 sequence (Q92731 whole entry, the tested form may be a part): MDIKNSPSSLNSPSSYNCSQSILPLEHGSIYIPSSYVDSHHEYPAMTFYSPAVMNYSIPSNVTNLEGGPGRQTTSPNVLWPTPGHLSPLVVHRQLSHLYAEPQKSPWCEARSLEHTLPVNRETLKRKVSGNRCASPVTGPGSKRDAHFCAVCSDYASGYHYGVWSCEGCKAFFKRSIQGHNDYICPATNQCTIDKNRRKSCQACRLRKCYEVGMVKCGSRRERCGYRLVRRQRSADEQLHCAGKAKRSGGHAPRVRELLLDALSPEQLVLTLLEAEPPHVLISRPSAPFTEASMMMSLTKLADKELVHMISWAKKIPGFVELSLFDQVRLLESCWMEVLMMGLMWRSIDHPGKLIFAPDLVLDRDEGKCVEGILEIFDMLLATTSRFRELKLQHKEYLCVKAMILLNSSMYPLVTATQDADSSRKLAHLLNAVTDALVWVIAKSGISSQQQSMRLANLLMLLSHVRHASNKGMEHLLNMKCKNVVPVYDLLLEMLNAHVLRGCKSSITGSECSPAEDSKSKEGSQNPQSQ

[3] = tested on: human whole blood; test: in vitro whole blood assay, IL-17A production; format: cell-based; conditions: human whole blood diluted 1:1; read-out: IC50, inhibition of IL-17A production
[4] = target: 5HT2A (Homo sapiens, UniProt P28223); test: GPCR panel, cAMP or calcium FLIPR assays; format: cell-based
Sequence of 5HT2A (P28223 whole entry, species assumed): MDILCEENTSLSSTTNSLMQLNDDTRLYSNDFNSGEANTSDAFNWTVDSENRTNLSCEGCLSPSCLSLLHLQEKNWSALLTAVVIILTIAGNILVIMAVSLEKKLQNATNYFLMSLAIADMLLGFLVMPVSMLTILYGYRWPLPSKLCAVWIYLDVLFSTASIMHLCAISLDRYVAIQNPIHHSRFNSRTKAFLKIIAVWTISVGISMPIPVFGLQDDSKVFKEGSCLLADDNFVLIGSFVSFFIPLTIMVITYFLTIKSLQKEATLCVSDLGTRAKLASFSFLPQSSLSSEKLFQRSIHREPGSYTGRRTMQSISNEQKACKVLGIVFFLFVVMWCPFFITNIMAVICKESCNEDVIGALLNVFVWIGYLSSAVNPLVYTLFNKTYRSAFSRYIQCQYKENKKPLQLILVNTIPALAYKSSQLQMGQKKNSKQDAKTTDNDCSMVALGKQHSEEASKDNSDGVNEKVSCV
Experimental: 28 GPCRs were evaluated through cAMP or calcium FLIPR assays[67]. A panel of 52 different receptors, ion channels and transporters was tested by Cerep, Inc. (Redmond, WA).

[5] = tested on: human CD4+ T cells under Th1 conditions; test: in vitro human Th1 differentiation, IFNγ production
Experimental: On day 4, supernatants were analyzed for IL-17A, IL-17F, IL-22 and IFNγ production.
Total CD4^+ T cells were isolated from peripheral blood mononuclear cells (PBMCs) of healthy donors using a CD4^+ T cell Isolation Kit II (Miltenyl Biotec, Auburn, CA), following the manufacturer’s instructions.
In vitro human Th17 and Th1 differentiation
Total CD4+ T cells were isolated from the peripheral blood mononuclear cells (PBMCs) of healthy donors
using a CD4+ T cell Isolation Kit II (Miltenyl Biotec, Auburn, CA), following the manufacturer’s
instructions. Isolated T cells were resuspended in culture medium and added to a 96-well plate at 1×105
beads (prepared using human T cell activation/expansion kit, Miltenyi Biotec) at final concentration of
3x10^6/mL, and cocktail for either Th17 differentiation (10 µg/mL anti-IL-4, 10 µg/mL anti-IFN, 10 ng/mL
IL-1β, 10 ng/mL IL-23, 50 ng/mL IL-6, 3 ng/mL TGFβ and 20 U/mL IL-2), or for Th1 differentiation (10
µg/mL anti-IL-4, 10 ng/mL IL-12, and 20 U/mL IL-2). Cells were cultured at 37°C and 5% CO2 for 3 days.
Supernatants were assayed for accumulated cytokines using MSD multi-spot assay (Meso Scale
Discovery, Rockville, MD) or R&D ELISA kit.

[6] = target: T3, A1 (h) (Homo sapiens, UniProt P30542); test: Cerep panel; format: binding
T3 construct: purchased Cerep (receptors, ion channels, transporters); Eurofins Panlabs (kinases)
T3 sequence (P30542 whole entry): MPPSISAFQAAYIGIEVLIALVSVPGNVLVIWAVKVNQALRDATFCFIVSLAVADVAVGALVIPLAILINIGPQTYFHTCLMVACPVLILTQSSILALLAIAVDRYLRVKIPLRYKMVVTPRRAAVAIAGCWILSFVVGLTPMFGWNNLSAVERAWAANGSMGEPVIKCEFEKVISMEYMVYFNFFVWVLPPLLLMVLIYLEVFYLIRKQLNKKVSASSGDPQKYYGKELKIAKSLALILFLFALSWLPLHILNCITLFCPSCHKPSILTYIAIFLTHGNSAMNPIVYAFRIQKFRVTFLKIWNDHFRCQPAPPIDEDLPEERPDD
Experimental: (§2) A panel of 52 different receptors, ion channels and transporters was tested by Cerep, Inc. (Redmond, WA).

[7] = target: T4, CK2(h) (Homo sapiens, UniProt P68400); test: Kinase panel; format: biochemical
T4 construct: purchased Cerep (receptors, ion channels, transporters); Eurofins Panlabs (kinases)
T4 sequence (P68400 whole entry): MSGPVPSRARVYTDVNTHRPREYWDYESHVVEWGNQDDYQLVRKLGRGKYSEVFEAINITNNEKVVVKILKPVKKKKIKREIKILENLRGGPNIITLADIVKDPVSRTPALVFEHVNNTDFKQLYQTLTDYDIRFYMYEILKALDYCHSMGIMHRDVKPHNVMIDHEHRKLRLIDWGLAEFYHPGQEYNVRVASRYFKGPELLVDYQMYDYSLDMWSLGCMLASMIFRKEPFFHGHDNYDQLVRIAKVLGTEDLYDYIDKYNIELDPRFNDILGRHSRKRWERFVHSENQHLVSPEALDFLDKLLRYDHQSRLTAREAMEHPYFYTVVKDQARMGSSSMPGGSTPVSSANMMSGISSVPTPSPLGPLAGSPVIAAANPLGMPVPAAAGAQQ
T4 sequence (P67870 whole entry partner): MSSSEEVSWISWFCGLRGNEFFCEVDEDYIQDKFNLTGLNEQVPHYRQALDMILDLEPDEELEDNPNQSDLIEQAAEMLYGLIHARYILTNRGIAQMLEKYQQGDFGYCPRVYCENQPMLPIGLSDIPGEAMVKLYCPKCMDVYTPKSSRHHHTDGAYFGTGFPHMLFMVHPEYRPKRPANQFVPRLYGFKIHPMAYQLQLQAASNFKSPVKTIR
Experimental: as §1

[8] = target: T5, MT1 (h) (Homo sapiens, UniProt P48039); test: Cerep panel; format: binding
T5 construct: purchased Cerep (receptors, ion channels, transporters); Eurofins Panlabs (kinases)
T5 sequence (P48039 whole entry): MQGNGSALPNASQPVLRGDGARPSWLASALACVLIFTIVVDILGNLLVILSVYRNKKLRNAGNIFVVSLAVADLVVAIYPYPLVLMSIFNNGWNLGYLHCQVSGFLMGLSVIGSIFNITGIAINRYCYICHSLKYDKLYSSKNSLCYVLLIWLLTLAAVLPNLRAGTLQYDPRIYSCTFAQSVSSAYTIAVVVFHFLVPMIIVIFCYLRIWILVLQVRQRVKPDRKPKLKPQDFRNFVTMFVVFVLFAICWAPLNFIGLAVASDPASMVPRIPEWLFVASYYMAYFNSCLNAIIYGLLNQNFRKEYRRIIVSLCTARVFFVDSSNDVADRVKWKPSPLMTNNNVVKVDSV
Experimental: as §2

[9] = target: T6, ZAP-70(h) (Homo sapiens, UniProt P43403); test: Kinase panel; format: biochemical
T6 construct: purchased Cerep (receptors, ion channels, transporters); Eurofins Panlabs (kinases)
T6 sequence (P43403 whole entry): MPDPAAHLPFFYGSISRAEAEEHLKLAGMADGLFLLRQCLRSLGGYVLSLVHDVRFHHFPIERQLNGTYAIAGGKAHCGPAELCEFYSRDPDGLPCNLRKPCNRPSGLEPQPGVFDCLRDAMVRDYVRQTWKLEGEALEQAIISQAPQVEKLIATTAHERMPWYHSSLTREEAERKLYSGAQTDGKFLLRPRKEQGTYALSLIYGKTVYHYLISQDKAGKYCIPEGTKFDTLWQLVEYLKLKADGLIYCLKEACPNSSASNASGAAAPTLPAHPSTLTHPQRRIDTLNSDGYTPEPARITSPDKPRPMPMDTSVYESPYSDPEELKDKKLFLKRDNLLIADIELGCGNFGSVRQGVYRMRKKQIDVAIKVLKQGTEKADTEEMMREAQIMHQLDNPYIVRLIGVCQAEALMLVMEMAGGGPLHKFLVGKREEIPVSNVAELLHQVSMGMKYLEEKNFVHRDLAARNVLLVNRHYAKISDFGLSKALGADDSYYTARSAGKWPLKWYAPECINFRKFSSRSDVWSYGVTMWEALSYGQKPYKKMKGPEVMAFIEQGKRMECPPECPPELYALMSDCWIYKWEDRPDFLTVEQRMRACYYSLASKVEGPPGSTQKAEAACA
Experimental: as §1

[10] = tested on: healthy human volunteers; test: phase 1 single ascending dose study, safety
Experimental: Randomized, double-blind, placebo-controlled, single center study was designed by Janssen Immunology Clinical Development team and approved by Independent Ethics Committee/Institutional Review Board (Comité voor Medische Ethiek UZA, Wilrijkstraat 10, Edegem, 2650, Belgium). The study was conducted in Janssen’s Clinical Pharmacology Unit in Belgium from May 18th 2017 to April 5th 2018, according to Declaration of Helsinki principles and International Committee on Harmonisation Good Clinical Practice guidelines. […] Participants were healthy males and females of non-childbearing potential (postmenopausal or permanently sterile), aged 18 to 60 years inclusive, with a body mass index of 18 and 30 kg/m^2 and body weight of not less than 50 kg. Informed consent was obtained from all participants. No formal sample size and power calculations were performed. The number of participants chosen for this study was considered adequate to provide a preliminary safety assessment and PK assessment. The randomization was based on a computer-generated treatment randomization schedule prepared and balanced by using randomly permuted blocks. […] Participants and study site staff members including the Investigator were blinded to treatment allocation during entire study period. […] Cohorts 1 to 4 received single oral doses of 10, 30, 100 and 200 mg after an overnight fast, and cohort 5 were dosed 100 mg within 30 min of the start of a standard high fat meal. […] For all parts of the study, adverse events and concomitant medications were assessed and recorded from screening through follow-up (day 14–21 post-dose). The following safety measures were assessed at various time points during the study: medical history, physical examination, neurologic examination, electrocardiogram (12-lead ECG, or continuous telemetry), and vital signs (blood pressure, heart rate, respiratory rate, and temperature). […] This was a Phase 1 first-in-human study with limited sample size, the data generated was descriptive in nature, and no formal statistical hypothesis testing was planned. Although there was no formal interim analysis, assessments of PK and PD samples by cohort and safety assessments were conducted and reviewed during the study to plan dose-escalation and future development.

[11] = target: T7, CAR (Homo sapiens, UniProt Q14994); test: nuclear receptor cellular GAL4 reporter assay; format: cell-based; conditions: agonist and antagonist mode; read-out: potency in agonist and antagonist mode
T7 construct: expressed in transfected cells
T7 sequence (Q14994 whole entry, the tested form may be a part): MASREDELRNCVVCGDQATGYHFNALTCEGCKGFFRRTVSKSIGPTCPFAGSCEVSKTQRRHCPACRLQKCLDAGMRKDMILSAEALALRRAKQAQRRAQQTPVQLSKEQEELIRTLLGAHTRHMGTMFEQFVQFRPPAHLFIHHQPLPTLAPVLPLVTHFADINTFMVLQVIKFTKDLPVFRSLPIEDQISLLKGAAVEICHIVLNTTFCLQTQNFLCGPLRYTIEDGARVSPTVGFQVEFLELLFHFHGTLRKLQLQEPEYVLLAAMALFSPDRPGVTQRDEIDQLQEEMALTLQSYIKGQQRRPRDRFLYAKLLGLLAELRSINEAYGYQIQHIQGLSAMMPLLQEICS

[12] = 100 mg (fasted) n = 9, single oral dose
[13] = 100 mg (fed) n = 9, single oral dose

T1 sequence (Q9NWZ3 whole entry): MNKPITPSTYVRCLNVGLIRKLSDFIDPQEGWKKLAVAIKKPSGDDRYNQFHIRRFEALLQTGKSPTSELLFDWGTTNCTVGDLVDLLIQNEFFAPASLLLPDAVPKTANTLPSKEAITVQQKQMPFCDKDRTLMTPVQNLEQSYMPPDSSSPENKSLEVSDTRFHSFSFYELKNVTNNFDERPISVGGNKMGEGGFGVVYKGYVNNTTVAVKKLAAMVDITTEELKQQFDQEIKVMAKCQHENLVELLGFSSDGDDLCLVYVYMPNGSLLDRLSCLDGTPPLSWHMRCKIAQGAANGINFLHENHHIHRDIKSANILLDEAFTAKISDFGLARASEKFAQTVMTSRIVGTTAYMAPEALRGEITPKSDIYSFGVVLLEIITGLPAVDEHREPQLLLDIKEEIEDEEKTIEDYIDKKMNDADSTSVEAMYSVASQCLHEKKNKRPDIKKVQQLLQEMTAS

CC1CCCN1C(=O)c1nc(C(=O)NCC(C)(C)O)sc1-c1ccc(C(O)(C(F)(F)F)C(F)(F)F)c(Cl)c1Cl (stereo not drawn) [JNJ-61803534]
activity at 1 µM [1]: 113%
activity at 10 µM [1]: 112%
IC50 [2]: > 1500 nM
IC50 [3]: 230 ± 110 nM
EC50 ([4]; agonist): > 10 µM
IC50 ([4]; antagonist): > 10 µM
inhibition of IFNγ production [5]: no inhibition; also recorded: did not inhibit
inhibition at 1 µM [6]: < 10%
inhibition at 10 µM [6]: < 10%
activity at 1 µM [7]: 109%
activity at 10 µM [7]: 102%
inhibition at 1 µM [8]: < 10%
inhibition at 10 µM [8]: 20.4%
activity at 1 µM [9]: 137%
activity at 10 µM [9]: 119%
Aphthous ulcer, treatment-emergent adverse events ([10]; 10 mg n = 6, single oral dose): 0
Back pain, treatment-emergent adverse events ([10]; 10 mg n = 6, single oral dose): 1
Diarrhea, treatment-emergent adverse events ([10]; 10 mg n = 6, single oral dose): 0
Headache, treatment-emergent adverse events ([10]; 10 mg n = 6, single oral dose): 0
Hypercholesterolaemia, treatment-emergent adverse events ([10]; 10 mg n = 6, single oral dose): 0
Medical device site reaction, treatment-emergent adverse events ([10]; 10 mg n = 6, single oral dose): 0
Musculoskeletal discomfort, treatment-emergent adverse events ([10]; 10 mg n = 6, single oral dose): 0
Nasal congestion, treatment-emergent adverse events ([10]; 10 mg n = 6, single oral dose): 0
Oral herpes, treatment-emergent adverse events ([10]; 10 mg n = 6, single oral dose): 0
Viral upper respiratory tract infection, treatment-emergent adverse events ([10]; 10 mg n = 6, single oral dose): 0
Aphthous ulcer, treatment-emergent adverse events ([10]; 30 mg n = 6, single oral dose): 0
Back pain, treatment-emergent adverse events ([10]; 30 mg n = 6, single oral dose): 0
Diarrhea, treatment-emergent adverse events ([10]; 30 mg n = 6, single oral dose): 0
Headache, treatment-emergent adverse events ([10]; 30 mg n = 6, single oral dose): 1
Hypercholesterolaemia, treatment-emergent adverse events ([10]; 30 mg n = 6, single oral dose): 0
Medical device site reaction, treatment-emergent adverse events ([10]; 30 mg n = 6, single oral dose): 1
Musculoskeletal discomfort, treatment-emergent adverse events ([10]; 30 mg n = 6, single oral dose): 0
Nasal congestion, treatment-emergent adverse events ([10]; 30 mg n = 6, single oral dose): 0
Oral herpes, treatment-emergent adverse events ([10]; 30 mg n = 6, single oral dose): 1
Viral upper respiratory tract infection, treatment-emergent adverse events ([10]; 30 mg n = 6, single oral dose): 0
Aphthous ulcer, treatment-emergent adverse events [10, 12]: 0
Back pain, treatment-emergent adverse events [10, 12]: 1
Diarrhea, treatment-emergent adverse events [10, 12]: 2
Headache, treatment-emergent adverse events [10, 12]: 4
Hypercholesterolaemia, treatment-emergent adverse events [10, 12]: 2
Medical device site reaction, treatment-emergent adverse events [10, 12]: 2
Musculoskeletal discomfort, treatment-emergent adverse events [10, 12]: 0
Nasal congestion, treatment-emergent adverse events [10, 12]: 2
Oral herpes, treatment-emergent adverse events [10, 12]: 0
Viral upper respiratory tract infection, treatment-emergent adverse events [10, 12]: 2
Aphthous ulcer, treatment-emergent adverse events [10, 13]: 1
Back pain, treatment-emergent adverse events [10, 13]: 1
Diarrhea, treatment-emergent adverse events [10, 13]: 2
Headache, treatment-emergent adverse events [10, 13]: 0
Hypercholesterolaemia, treatment-emergent adverse events [10, 13]: 0
Medical device site reaction, treatment-emergent adverse events [10, 13]: 2
Musculoskeletal discomfort, treatment-emergent adverse events [10, 13]: 0
Nasal congestion, treatment-emergent adverse events [10, 13]: 0
Oral herpes, treatment-emergent adverse events [10, 13]: 1
Viral upper respiratory tract infection, treatment-emergent adverse events [10, 13]: 2
participants with clinically significant high cholesterol values ([10]; 100 mg fasted group): 2
participants with clinically significant high cholesterol values ([10]; 200 mg fasted group): one
Aphthous ulcer, treatment-emergent adverse events ([10]; 200 mg n = 6, single oral dose): 1
Back pain, treatment-emergent adverse events ([10]; 200 mg n = 6, single oral dose): 1
Diarrhea, treatment-emergent adverse events ([10]; 200 mg n = 6, single oral dose): 0
Headache, treatment-emergent adverse events ([10]; 200 mg n = 6, single oral dose): 0
Hypercholesterolaemia, treatment-emergent adverse events ([10]; 200 mg n = 6, single oral dose): 1
Medical device site reaction, treatment-emergent adverse events ([10]; 200 mg n = 6, single oral dose): 1
Musculoskeletal discomfort, treatment-emergent adverse events ([10]; 200 mg n = 6, single oral dose): 2
Nasal congestion, treatment-emergent adverse events ([10]; 200 mg n = 6, single oral dose): 0
Oral herpes, treatment-emergent adverse events ([10]; 200 mg n = 6, single oral dose): 0
Viral upper respiratory tract infection, treatment-emergent adverse events ([10]; 200 mg n = 6, single oral dose): 0
participants with Grade 2 or higher abnormal cholesterol values ([10]; combined JNJ-61803534 group): Fourteen
participants with TEAEs reasonably related to the study agent ([10]; combined JNJ-61803534 group (diarrhea)): 1
TEAEs leading to death, treatment-emergent severe adverse events, severe TEAEs or TEAEs leading to discontinuation ([10]; in vivo): no
safety and tolerability ([10]; single doses up to and including 200 mg): safe and well-tolerated
IC50 [11]: > 1500 nM
